From patent EP0167553B1, “NEW THERAPEUTICAL APPLICATION OF AN INDANE DIONE DERIVATIVE AND PHARMACEUTICAL COMPOSITIONS INTENDED TO SAID UTILIZATION” (priority 1983, dated 1985)
Where “and” joins values, the source holds several entries; their conditions need not be identical. Identical values can stand only once. Like-named read-outs stand apart in the source and are kept apart here.

Legend:
Rats: Wistar femelles [1] = assay: Atherogenic diet (modified Aubert technique): biochemical examinations and atherogenic risk; assay type: in vivo, Rat Wistar; parameters: score général Biochimie / Risque athérogène Score Total: scale not given here; conditions: for Cholesterol LDL Cholesterol HDL Score / Cholesterol T/ Cholesterol HDL Score: atherogenic risk ratio; for score général Biochimie: sum of the individual biochemical scores
From the text: (§1) La technique utilisée est celle, légèrement modifiée, de AUBERT D., FERAUD J.C., LACAZE B., PEPINO., PANAK E. et PODESTA M. "Athérogénèse expérimentale chez le Rat Wistar". ATHEROSCLEROSIS 2Q (1974) 263 - 280.
(§2) • - Rats: Wistar femelles, E.O.P.S. en provenance de l'élevage EVIC-CEBA. • - Poids corporel: 160 180 g au départ de l'étude • - Alimentation: UAR A03, enrichi en cholestérol (0,5 %) et en Acide chloique (0,5 %). • - Eau de boisson: eau de ville. • - 15 animaux par lot et par cage MAKROLON SAFI® de 59 x 38,5 cm sur litière de copeaux de bois blanc dépoussiérés. • - Cages placées dans un module animalerie climatisé (20°C * 1°C), à l'humidité constante (50 % ± 10 %). Durée d'éclairement: 12 heures par jour (7 h à 19 h). • - Administration des produits: Après 15 jours de régime athéromateux, on leur administre par voie orale pendant 4 jours 250 000 Ul/kg de vitamine D2 (Stérogyl 15 H) en solution dans l'huile d'olive. On administre ensuite les produits à étudier pendant 4 semaines dès la fin de l'administration de l'agent lésionnel.
L'étude porte sur 5 Lots de 15 rats (tableau N° IV)
En fin d'étude, on pratique sur tous les animaux survivants les examens suivants: • - Cholestérol total, • - Cholestérol estérifié, • - Cholestérol HDL • - Cholestérol LDL (évaluation), • - Lipides totaux, • - Triglycérides.

Rat sain = assay: Chronic administration, maximum tolerated dose in the rat; assay type: in vivo; conditions: administration chronique
Method: (§3) • - Le comportement et l'[…] pondérale des animaux sont étudiés par l'observation quotidienne et les pesées hebdomadaires. L'étude de l'évolution pondérale ne montre pas de différence significative entre les différents lots. C'est un indice de bonne tolérance du traitement. • - La moralité est notée dans chaque lot; elle peut atteindre 30 % des animaux ce qui nécessite des lots de 15 animaux. L'administration chronique de 100 mg/kg de Clofibrate correspond à la dose maximale tolérée par le Rat sain selon nos expériences personnelles.

[2] = as above; assay type: in vivo; conditions: rat, in vivo, administration chronique, read-out: dose maximale tolérée
Method: as §3

Rats: Wistar femelles [3] = assay: Atherogenic diet (modified Aubert technique): macroscopic examination of the aorta; assay type: in vivo, Rat Wistar; conditions: for Intensité des lésions Cotation: scale Stade 0 to Stade 5
From the text: as §1, §2
En fin d'étude, tous les animaux sont sacrifiés par ponction subtotale du sang à l'aorte abdominale après anesthésie au pentobarbital sodique. On prélève le coeur, le foie et l'aorte sur laquelle on effectue la cotation du pouvoir athérogène. Pour ce faire, les aortes sont coupées longitudinalement puis étalées pour permettre une vue d'ensemble du revêtement endothélial depuis les valvules aortiques jusqu'à la bifurcation du tronc coeliaque (segment inférieur de l'aorte thoracique).
L'aorte est séparée en 2 zones: • - Zone 1: Valvules aortiques - premières artères intercostales • - Zone 2: premières artères intercostales - bifurcation du tronc coeliaque.
L'intensité des dépôts athéromateux est évaluée selon les critères suivants: • - Stade 0: Absence de dépôts • - Stade 1: Dépôts discrets ([…]) peu nombreux • - Stade 2: Dépôts discrets nombreux • - Stade 3: Dépôts importants (> 1 mm) nombreux • - Stade 4: Dépôts très importants ou très nombreux mais laissant quelques zones non infiltrées. • - Stade 5: Dépôts sur tout l'endothélium.
Deux paramètres sont à prendre en considération: • 1. Le nombre d'animaux présentant des lésions macroscopiques, dont le pourcentage d'animaux atteints. • 2. L'intensité des lésions observées cotées selon les indications fournies précédemment.

Souris SWISS = assay: Acute toxicity, single administration, intraperitoneal route; assay type: in vivo; conditions: for DLO: DLO = Dose Maxima toujours tolérée
Method: (§4) Souris SWISS mâles et femelles de 22 à 25g de poids corporel. Animaux EOPS.
(§5) Sauf mention contraire précisée dans les tableaux de résultats, 10 animaux par dose, sexe et cage en MAKROLON SAFI@ de 40/25 cm. Litière de copeaux de bois blanc. Alimentation standard pour rats et souris UAR et eau ordinaire à volonté.
(§6) Ils sont administrés sans jeûne préalable: • - par voie digestive (intubation gastrique par sonde oesophagienne métallique) à raison de 0,5 ml ou 1 ml pour 20 g de poids corporel d'une suspension aqueuse à 3p.100 en gomme arabique du dérivé testé. • - par voie intrapéritonéale à raison de 0,5 ml ou 1 ml pour 20 g d'une suspension du dérivé testé dans le soluté isotonique de chlorure de sodium à 3p.100 en gomme arabique.
(§7) Pendant 6 heures après l'administration unique, puis tous les jours pendant 15 jours.
(§8) S'il y a lieu, les doses létales cinquante (DL50) sont calculées selon les méthodes de: • - Behrens et Karber (B.K.) • - Miller et Tainter (M.T.), cette dernière méthode permettant d'attribuer, pour le seuil de probabilité de P = 0,05 un intervalle de confiance aux DL 50.
(§9) En outre, sont déterminées les DLO et DL100. • - DLO = DMT: Dose Maxima toujours tolérée • - DL100 = DmM: Dose minima toujours Mortelle.

[4] = as above; assay type: in vivo; conditions: mouse, in vivo, ip; for LD50 at 360 h: read-out: DL50; for mortality at 360 h: single dose
Method: as §4, §5, §6, §7, §8, §9

[5] = Earlier anti-inflammatory test; assay type: in vivo; conditions: dose de 250 mg/kg
[6] = 100 mg/kg, 4 weeks, score relative to Clofibrate (Base 1)
[7] = compared with Clofibrate at the same dose

## CCOC(=O)C(C)(C)Oc1ccc(Cl)cc1 [Clofibrate]
Rats: Wistar femelles [1]; 100 mg/kg
  Cholesterol LDL Cholesterol HDL Score/Clofibrate: 1.00
  Cholesterol T/ Cholesterol HDL Score/Clofibrate: 1.00
  Risque athérogène Score Total: 2
  Cholesterol LDL Cholesterol HDL Score: 5.35
  Cholesterol T/ Cholesterol HDL Score: 6.69
  score général Biochimie: 6
Rats: Wistar femelles [1]; [6]
  Cholesterol E Score: 1.00
  Cholesterol HDL Score: 1.00
  Cholesterol LDL Score: 1.00
  Cholesterol T Score: 1.00
  Lipides totaux Score: 1.00
  Triglycerides Score: 1.00
Rat sain
  dose maximale tolérée: 100 mg/kg
[2]
  MTD: ~100 mg/kg
Rats: Wistar femelles [3]; 100 mg/kg
  Intensité des lésions Cotation: 2.00
Souris SWISS; mouse, in vivo, ip, 21600 min
  DL50: ~1700 mg/kg
[4]; voie intrapéritonéale, mâles, "de l'ordre de"
  LD50 at 360 h: ~1850 mg/kg

## COc1ccc(C(=O)CC2(O)C(=O)c3ccccc3C2=O)cc1OC [Produit de l'invention, 2-[(3,4-dimethoxybenzoyl)methyl] 2-hydroxy 1,3-dioxo indane]
Rats: Wistar femelles [1]; 100 mg/kg
  Cholesterol LDL Cholesterol HDL Score/Clofibrate: 0.46
  Cholesterol T/ Cholesterol HDL Score/Clofibrate: 0.44
  Risque athérogène Score Total: 0.90
  Cholesterol LDL Cholesterol HDL Score: 15.63
  Cholesterol T/ Cholesterol HDL Score: 17.81
  score général Biochimie: 5.6 and 5.67
Rats: Wistar femelles [1]; [6]
  Cholesterol E Score: 1.05
  Cholesterol LDL Score: 1.04
  Cholesterol T Score: 1.14
  Lipides totaux Score: 1.37
  Triglycerides Score: 1.07
Rats: Wistar femelles [1]; [7]
  activité sur les paramètres biochimiques: aussi actif que le Clofibrate
Rats: Wistar femelles [1]; dès la dose de 100 mg/kg
  activité anti-lipémiante: nette activité anti-lipémiante
Rats: Wistar femelles [3]; 100 mg/kg
  Animaux Atteints Score Clofibrate: 1.69
  Intensité des lésions Score Clofibrate: 0.88
  Observations Macroscopiques Score Total: 2.57
  Intensité des lésions Cotation: 2.08
Rats: Wistar femelles [3]; 100 mg/kg, animals with macroscopic lesions
  Animaux Atteints %: 69.23%
Rats: Wistar femelles [3]; [7]
  activité sur l'évalution des lésions macroscopiques: plus actif
[5]
  effet anti-inflammatoire: effet liminaire anti-inflammatoire
Souris SWISS; IP, Souris Femelles
  DLO: 2000 mg/kg
Souris SWISS; IP, Souris Mâles
  DLO: 2000 mg/kg
Souris SWISS; IP, time to death after injection
  La mort survient par arrêt respiratoire en: 24 - 48 heures
[4]; 2000 mg/kg, 2000 mg/kg IP, read-out: Létalite sur 10 souris Femelles
  mortality at 360 h: 0%
[4]; 2000 mg/kg, 2000 mg/kg IP, read-out: Létalite sur 10 souris Mâles
  mortality at 360 h: 0%
[4]; 2500 mg/kg, 2500 mg/kg IP, read-out: Létalite sur 10 souris Femelles
  mortality at 360 h: 10%
[4]; 2500 mg/kg, 2500 mg/kg IP, read-out: Létalite sur 10 souris Mâles
  mortality at 360 h: 10%
[4]; 3000 mg/kg, 3000 mg/kg IP, read-out: Létalite sur 10 souris Femelles
  mortality at 360 h: 60%
[4]; 3000 mg/kg, 3000 mg/kg IP, read-out: Létalite sur 10 souris Mâles
  mortality at 360 h: 30%
[4]; 3500 mg/kg, 3500 mg/kg IP, read-out: Létalite sur 10 souris Femelles
  mortality at 360 h: 80%
[4]; 3500 mg/kg, 3500 mg/kg IP, read-out: Létalite sur 10 souris Mâles
  mortality at 360 h: 50%
[4]; 4000 mg/kg, 4000 mg/kg IP, read-out: Létalite sur 10 souris Femelles
  mortality at 360 h: 100%
[4]; 4000 mg/kg, 4000 mg/kg IP, read-out: Létalite sur 10 souris Mâles
  mortality at 360 h: 80%
[4]; 4500 mg/kg, 4500 mg/kg IP, read-out: Létalite sur 10 souris Femelles
  mortality at 360 h: 100%
[4]; 4500 mg/kg, 4500 mg/kg IP, read-out: Létalite sur 10 souris Mâles
  mortality at 360 h: 100%
[4]; 5000 mg/kg, 5000 mg/kg IP, read-out: Létalite sur 10 souris Femelles
  mortality at 360 h: 100%
[4]; 5000 mg/kg, 5000 mg/kg IP, read-out: Létalite sur 10 souris Mâles
  mortality at 360 h: 100%
[4]; Souris Femelles, method Behrens et Karber (B.K.)
  LD50 at 360 h: 3000 mg/kg
[4]; Souris Femelles, method Miller et Tainter (M.T.), confidence interval P = 0,05
  LD50 at 360 h: 3000 ± 145 mg/kg
[4]; Souris Mâles, method Behrens et Karber (B.K.)
  LD50 at 360 h: 3400 mg/kg
[4]; Souris Mâles, method Miller et Tainter (M.T.), confidence interval P = 0,05
  LD50 at 360 h: 3350 ± 190 mg/kg
[4]; voie intrapéritonéale, sex not specified, "de l'ordre de"
  LD50 at 360 h: ~3000 mg/kg
